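The concentration for 50% growth inhibition is given as GI50. The concentration for full growth arrest is given as TGI.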
Key:
Experiment in all cases: NCI tumour cell line growth inhibition, 384-well format
786-0 renal = test system: 786-0 renal
A498 renal = test system: A498 renal
A549 NSCLC = test system: A549 NSCLC
ACHN renal = test system: ACHN renal
BT-549 breast = test system: BT-549 breast
CAKI-1 renal = test system: CAKI-1 renal
CCRF-CEM leukemia = test system: CCRF-CEM leukemia
COLO 205 colon = test system: COLO 205 colon
DU-145 prostate = test system: DU-145 prostate
EKVX NSCLC = test system: EKVX NSCLC
HCC-2998 colon = test system: HCC-2998 colon
HCT-15 colon = test system: HCT-15 colon
HL-60(TB) leukemia = test system: HL-60(TB) leukemia
HOP-62 NSCLC = test system: HOP-62 NSCLC
HOP-92 NSCLC = test system: HOP-92 NSCLC
HS 578T breast = test system: HS 578T breast
HT29 colon = test system: HT29 colon
IGROV1 ovarian = test system: IGROV1 ovarian
KM12 colon = test system: KM12 colon
M14 melanoma = test system: M14 melanoma
MALME-3M melanoma = test system: MALME-3M melanoma
MCF7 breast = test system: MCF7 breast
MDA-MB-231 breast = test system: MDA-MB-231 breast
MDA-MB-435 melanoma = test system: MDA-MB-435 melanoma
MDA-MB-468 breast = test system: MDA-MB-468 breast
MOLT-4 leukemia = test system: MOLT-4 leukemia
NCI-H226 lung = test system: NCI-H226 lung
NCI-H23 lung = test system: NCI-H23 lung
NCI-H322M lung = test system: NCI-H322M lung
NCI-H460 NSCLC = test system: NCI-H460 NSCLC
NCI-H522 lung = test system: NCI-H522 lung
NCI/ADR-RES ovarian = test system: NCI/ADR-RES ovarian
OVCAR-3 ovarian = test system: OVCAR-3 ovarian
OVCAR-4 ovarian = test system: OVCAR-4 ovarian
OVCAR-5 ovarian = test system: OVCAR-5 ovarian
OVCAR-8 ovarian = test system: OVCAR-8 ovarian
PC-3 prostate = test system: PC-3 prostate
RPMI-8226 leukemia = test system: RPMI-8226 leukemia
RXF 393 renal = test system: RXF 393 renal
SF-268 CNS = test system: SF-268 CNS
SF-295 CNS = test system: SF-295 CNS
SF-539 CNS = test system: SF-539 CNS
SK-MEL-2 melanoma = test system: SK-MEL-2 melanoma
SK-MEL-28 melanoma = test system: SK-MEL-28 melanoma
SK-MEL-5 melanoma = test system: SK-MEL-5 melanoma
SK-OV-3 ovarian = test system: SK-OV-3 ovarian
SN12C renal = test system: SN12C renal
SNB-19 CNS = test system: SNB-19 CNS
SNB-75 CNS = test system: SNB-75 CNS
SR leukemia = test system: SR leukemia
SW-620 colon = test system: SW-620 colon
T-47D breast = test system: T-47D breast
TK-10 renal = test system: TK-10 renal
U251 glioblastoma = test system: U251 glioblastoma
UACC-257 melanoma = test system: UACC-257 melanoma
UACC-62 melanoma = test system: UACC-62 melanoma

Q: Which results are given for `CC(C)n1nc(-c2ccc3oc(N)nc3c2)c2c(N)ncnc21`?
A: GI50 (786-0 renal): 0.0448 µM; TGI (786-0 renal): 1.51 µM; GI50 (A498 renal): < 0.01 µM; TGI (A498 renal): 0.022 µM; GI50 (A549 NSCLC): 0.0179 µM; TGI (A549 NSCLC): 0.259 µM; GI50 (ACHN renal): 0.0362 µM; TGI (ACHN renal): 0.347 µM; GI50 (BT-549 breast): 0.0121 µM; TGI (BT-549 breast): 0.0569 µM; GI50 (CAKI-1 renal): 0.0147 µM; TGI (CAKI-1 renal): 0.0828 µM; GI50 (CCRF-CEM leukemia): 0.0161 µM; TGI (CCRF-CEM leukemia): 0.258 µM; GI50 (COLO 205 colon): 0.0126 µM; TGI (COLO 205 colon): 0.064 µM; GI50 (DU-145 prostate): 0.0354 µM; TGI (DU-145 prostate): 2.68 µM; GI50 (EKVX NSCLC): 0.0182 µM; TGI (EKVX NSCLC): 0.122 µM; GI50 (HCC-2998 colon): 0.0153 µM; TGI (HCC-2998 colon): 5.31 µM; GI50 (HCT-15 colon): < 0.01 µM; TGI (HCT-15 colon): 11.6 µM; GI50 (HL-60(TB) leukemia): 0.326 µM; TGI (HL-60(TB) leukemia): 3 µM; GI50 (HOP-62 NSCLC): 0.0124 µM; TGI (HOP-62 NSCLC): 0.119 µM; GI50 (HOP-92 NSCLC): 0.0202 µM; TGI (HOP-92 NSCLC): 0.19 µM; GI50 (HS 578T breast): < 0.01 µM; TGI (HS 578T breast): 0.0264 µM; GI50 (HT29 colon): 0.0445 µM; TGI (HT29 colon): 10.4 µM; GI50 (IGROV1 ovarian): < 0.01 µM; TGI (IGROV1 ovarian): 0.0266 µM; GI50 (KM12 colon): 0.0217 µM; TGI (KM12 colon): 1.84 µM; GI50 (M14 melanoma): 0.0147 µM; TGI (M14 melanoma): 0.165 µM; GI50 (MALME-3M melanoma): < 0.01 µM; TGI (MALME-3M melanoma): < 0.01 µM; GI50 (MCF7 breast): < 0.01 µM; TGI (MCF7 breast): 7.12 µM; GI50 (MDA-MB-231 breast): 0.0187 µM; TGI (MDA-MB-231 breast): 0.681 µM; GI50 (MDA-MB-435 melanoma): 0.0264 µM; TGI (MDA-MB-435 melanoma): 0.152 µM; GI50 (MDA-MB-468 breast): < 0.01 µM; TGI (MDA-MB-468 breast): 0.0152 µM; GI50 (MOLT-4 leukemia): 0.0177 µM; TGI (MOLT-4 leukemia): 0.726 µM; GI50 (NCI-H226 lung): 0.0102 µM; TGI (NCI-H226 lung): 0.0627 µM; GI50 (NCI-H23 lung): 0.0743 µM; TGI (NCI-H23 lung): 1.63 µM; GI50 (NCI-H322M lung): 0.0142 µM; TGI (NCI-H322M lung): 2.27 µM; GI50 (NCI-H460 NSCLC): < 0.01 µM; TGI (NCI-H460 NSCLC): 1.87 µM; GI50 (NCI-H522 lung): < 0.01 µM; TGI (NCI-H522 lung): 0.0326 µM; GI50 (NCI/ADR-RES ovarian): 0.0359 µM; TGI (NCI/ADR-RES ovarian): 0.402 µM; GI50 (OVCAR-3 ovarian): 0.0222 µM; TGI (OVCAR-3 ovarian): 1.16 µM; GI50 (OVCAR-4 ovarian): 0.0185 µM; TGI (OVCAR-4 ovarian): 0.0567 µM; GI50 (OVCAR-5 ovarian): 0.0245 µM; TGI (OVCAR-5 ovarian): 0.603 µM; GI50 (OVCAR-8 ovarian): 0.0401 µM; TGI (OVCAR-8 ovarian): 0.858 µM; GI50 (PC-3 prostate): < 0.01 µM; TGI (PC-3 prostate): 0.0853 µM; GI50 (RPMI-8226 leukemia): < 0.01 µM; TGI (RPMI-8226 leukemia): < 0.01 µM; GI50 (RXF 393 renal): 0.0125 µM; TGI (RXF 393 renal): 0.0503 µM; GI50 (SF-268 CNS): 0.0408 µM; TGI (SF-268 CNS): 0.579 µM; GI50 (SF-295 CNS): 0.0278 µM; TGI (SF-295 CNS): 0.38 µM; GI50 (SF-539 CNS): 0.0328 µM; TGI (SF-539 CNS): 0.626 µM; GI50 (SK-MEL-2 melanoma): 0.0537 µM; TGI (SK-MEL-2 melanoma): 0.0921 µM; GI50 (SK-MEL-28 melanoma): 0.0187 µM; TGI (SK-MEL-28 melanoma): 0.0839 µM; GI50 (SK-MEL-5 melanoma): 0.0138 µM; TGI (SK-MEL-5 melanoma): 0.0458 µM; GI50 (SK-OV-3 ovarian): < 0.01 µM; TGI (SK-OV-3 ovarian): 0.042 µM; GI50 (SN12C renal): 0.0105 µM; TGI (SN12C renal): 1.45 µM; GI50 (SNB-19 CNS): 0.0696 µM; TGI (SNB-19 CNS): 10.6 µM; GI50 (SNB-75 CNS): < 0.01 µM; TGI (SNB-75 CNS): 0.042 µM; GI50 (SR leukemia): 0.0173 µM; TGI (SR leukemia): 0.0635 µM; GI50 (SW-620 colon): 0.113 µM; TGI (SW-620 colon): 3.14 µM; GI50 (T-47D breast): < 0.01 µM; TGI (T-47D breast): < 0.01 µM; GI50 (TK-10 renal): 0.0116 µM; TGI (TK-10 renal): 0.109 µM; GI50 (U251 glioblastoma): 0.0662 µM; TGI (U251 glioblastoma): 7.22 µM; GI50 (UACC-257 melanoma): 0.0514 µM; TGI (UACC-257 melanoma): 0.523 µM; GI50 (UACC-62 melanoma): 0.0184 µM; TGI (UACC-62 melanoma): 0.078 µM
